Entries after “also recorded” stand apart in the source; their conditions may differ.

Test [1] concerns women after laparascopic gynaecological surgery. The settings on record: ginger, 1.25 mg droperidol, vs placebo; cited from earlier work.
Test [2] has as its system human intestinal smooth muscle cells (HISMCs). In words: HISMC/collagen matrix cell contraction assay. Type of test: cell-based. The procedure: This assay was used to study the ability of […] to reorganize and contract in a collagen matrix. All procedures were done accordingly to protocols described by Dr. Alexander (5-HT3 dependent smooth muscle contraction assay, revised Aug. 30, 2012). The assay consisted in the preparation of collagen solution and in the polymerization and release of […]/collagen matrices. For 12 mL of collagen/[…], 15.0 mg of rat tail collagen was dissolved in 3.2 mL of cold 0.012M HCL. The solution was placed for 30 min in a rocker machine for gently agitation to avoid introducing bubbles. Then, 0.8 mL of cold PBS was added to the tube, mixed well, and kept on ice. The pH of the collagen solution was quickly titrated with 0.5 M NaOH to 7.45, and monitored by pH strips. The final collagen concentration was 1.25 mg/mL. The neutralized cold collagen solution was mixed with 12 mL of cold SMCM/1.5% dialyzed FBS containing […] at desire cell density (1×10^5 cells/mL). 0.5 mL of collagen/[…] mixture was added per well in 24-well plates and was incubated for 1 h at 37° C., 5% CO2. After collagen polymerization, 0.5 mL of culture medium with or without two-time concentration of drug treatments was added atop each collagen gel lattice. The polymerized collagen matrix containing […] was released from the edges of the well with a sterilized heat-blunted Pasteur pipette tip to allow them to float in culture medium, and contraction occurred with or without agonist addition in the absence of external mechanical load. The collagen gel size change (contraction index) was measured by morphometric analysis at various times (0, 24, 48, and 72 h). The culture plates were analyzed in triplicate and monitored at 24 h intervals. At the end of each time point, the plates were scanned via an Epson flatbed scanner.

Test [3] deals with college students with self-rated high susceptibility to motion sickness. The settings on record: 940 mg ginger root or 100 mg Dramamine 25-30 minutes prior to test; P < .001; cited from earlier work.
The test system of test [4] is Women undergoing gynecological surgery. The settings on record: 1.0 g ginger or 10 mg metochlopramide orally prior to surgery; P < .05; cited from earlier work.
The subject of test [5] is women after laparascopic gynaecological surgery. To be noted: post-operative; given one hour prior to anaesthesia; placebo 41%; cited from earlier work.

For the molecule `O=C(CCCN1CC=C(n2c(=O)[nH]c3ccccc32)CC1)c1ccc(F)cc1` [droperidol], the “decrease in nausea or vomiting post-surgery” value in test [1] is recorded as “no differences”.

On to `Cl.NCCc1c[nH]c2ccc(O)cc12` [5-HT, 5-Hydroxytryptamine hydrochloride], for which the “contraction of HISMC gels induced by agonist” value in test [2] (5-HT at 10^−7M, 10^−8M and 10^−9M) is “induced dose and time dependent contraction”.

On to `C[C@@H](O[C@H]1OCCN(Cc2n[nH]c(=O)[nH]2)[C@H]1c1ccc(F)cc1)c1cc(C(F)(F)F)cc(C(F)(F)F)c1` [Aprepitant], for which, in test [2] (different concentrations, with or without 5-HT3), the “effect on HISMC/collagen gel contraction” value is “attenuated collagen gel contraction only at high concentrations, 10^−4 M and not significantly”. For `Cc1nccn1CC1CCc2c(c3ccccc3n2C)C1=O` (centres unmarked) [Ondansetron], in test [2] (with 5-HT (10^−7M), different concentrations, 0-72 h), the “effect on 5-HT induced HISMC/collagen matrix contraction” value is “reduced; also recorded: inhibited HISMCs contractions in a concentration- and time-dependent manner”. In addition, the “effect on HISMC/collagen matrix contraction without 5-HT” value in test [2] (without 5-HT, different concentrations, 0-72 h) is “inhibited HISMCs contractions in a concentration- and time-dependent manner”. As for `CN(C)CCOC(c1ccccc1)c1ccccc1` [diphenhydramine], the “reducing vection induced motion sickness versus placebo (time in induced motion)” value in test [3] was “more effective than dried chickweed herb placebo”.

As to `CCN(CC)CCNC(=O)c1cc(Cl)c(N)cc1OC` [metochlopramide], the “effectiveness versus placebo for post-operative nausea and vomiting control” value in test [4] is listed as “significantly more effective than placebo”. For the same molecule, the patients nauseated result in test [5] was “placebo, 27%”.

Source of the values: patent US20240003872A1, “METHODS FOR ASSAYING AND MEASURING THE EFFICACY OF ANTI-NAUSEA COMPOUNDS” (priority 2020, published 2024).
